# What was measured:
# Assay in all cases: relative viability (nuclei count vs DMSO), 5 days (fraction); higher = more cells survive
# [1] = system: NCI-H2347
# How it was run: (§1)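 Five library-drug doses in √10 steps were combined with a fixed anchor-drug dose, or a single drug was given alone, by pin tool to lung cancer cell lines in 1536-well plates the day after seeding. Nuclei were stained and counted after 5 days. Relative viability is the nuclei count in treated wells over that in vehicle wells, taken as the median of duplicate plates.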
# [2] = system: RERF-LC-KJ
# How it was run: as §1
# [3] = system: PC-14
# How it was run: as §1
# [4] = system: NCI-H2087
# How it was run: as §1
# [5] = system: 201T
# How it was run: as §1
# [6] = system: NCI-H2126
# How it was run: as §1
# [7] = system: COR-L 105
# How it was run: as §1
# [8] = system: NCI-H1666
# How it was run: as §1
# [9] = system: NCI-H2405
# How it was run: as §1
# [10] = system: NCI-H1915
# How it was run: as §1
# [11] = system: NCI-H647
# How it was run: as §1
# [12] = system: H3255
# How it was run: as §1
# [13] = system: NCI-H650
# How it was run: as §1
# [14] = system: NCI-H23
# How it was run: as §1
# [15] = system: NCI-H661
# How it was run: as §1
# [16] = system: HCC-78
# How it was run: as §1
# [17] = system: EPLC-272H
# How it was run: as §1
# [18] = system: HCC-827
# How it was run: as §1
# [19] = system: LCLC-97TM1
# How it was run: as §1
# [20] = system: NCI-H520
# How it was run: as §1
# [21] = system: LC-2-ad
# How it was run: as §1
smiles,measurement,setting,value
COc1nc(C)cnc1NS(=O)(=O)c1cccnc1-c1ccc(-c2nnco2)cc1 [Zibotentan] + CS(=O)(=O)CCNCc1ccc(-c2ccc3ncnc(Nc4ccc(OCc5cccc(F)c5)c(Cl)c4)c3c2)o1 [Lapatinib] (partner 2 µM),relative viability,[1]; first compound 0.08 µM,1.05
same,relative viability,[1]; first compound 0.253 µM,0.941
same,relative viability,[1]; first compound 0.8 µM,1.19
same,relative viability,[1]; first compound 2.53 µM,0.943
same,relative viability,[2]; first compound 0.08 µM,0.89
same,relative viability,[2]; first compound 0.253 µM,0.807
same,relative viability,[2]; first compound 0.8 µM,0.878
same,relative viability,[2]; first compound 2.53 µM,0.845
same,relative viability,[3]; first compound 0.08 µM,0.322
same,relative viability,[3]; first compound 0.253 µM,0.314
same,relative viability,[3]; first compound 0.8 µM,0.344
same,relative viability,[3]; first compound 2.53 µM,0.348
same,relative viability,[4]; first compound 0.08 µM,1.17
same,relative viability,[4]; first compound 0.253 µM,0.955
same,relative viability,[4]; first compound 0.8 µM,1.06
same,relative viability,[4]; first compound 2.53 µM,1.09
same,relative viability,[5]; first compound 0.08 µM,1.03
same,relative viability,[5]; first compound 0.253 µM,0.977
same,relative viability,[5]; first compound 0.8 µM,1.11
same,relative viability,[5]; first compound 2.53 µM,1.02
same,relative viability,[6]; first compound 0.08 µM,0.79
same,relative viability,[6]; first compound 0.253 µM,0.724
same,relative viability,[6]; first compound 0.8 µM,0.662
same,relative viability,[6]; first compound 2.53 µM,0.779
same,relative viability,[7]; first compound 0.08 µM,0.394
same,relative viability,[7]; first compound 0.253 µM,0.35
same,relative viability,[7]; first compound 0.8 µM,0.394
same,relative viability,[7]; first compound 2.53 µM,0.4
same,relative viability,[8]; first compound 0.08 µM,0.63
same,relative viability,[8]; first compound 0.253 µM,0.435
same,relative viability,[8]; first compound 0.8 µM,0.495
same,relative viability,[8]; first compound 2.53 µM,0.688
same,relative viability,[9]; first compound 0.08 µM,1.18
same,relative viability,[9]; first compound 0.253 µM,0.84
same,relative viability,[9]; first compound 0.8 µM,1.06
same,relative viability,[9]; first compound 2.53 µM,1.09
same,relative viability,[10]; first compound 0.08 µM,1.03
same,relative viability,[10]; first compound 0.253 µM,0.934
same,relative viability,[10]; first compound 0.8 µM,0.963
same,relative viability,[10]; first compound 2.53 µM,1.03
same,relative viability,[11]; first compound 0.08 µM,1.23
same,relative viability,[11]; first compound 0.253 µM,0.924
same,relative viability,[11]; first compound 0.8 µM,0.968
same,relative viability,[11]; first compound 2.53 µM,1.06
same,relative viability,[12]; first compound 0.08 µM,0.271
same,relative viability,[12]; first compound 0.253 µM,0.255
same,relative viability,[12]; first compound 0.8 µM,0.281
same,relative viability,[12]; first compound 2.53 µM,0.239
same,relative viability,[13]; first compound 0.08 µM,0.974
same,relative viability,[13]; first compound 0.253 µM,0.655
same,relative viability,[13]; first compound 0.8 µM,1
same,relative viability,[13]; first compound 2.53 µM,0.904
same,relative viability,[14]; first compound 0.08 µM,1.22
same,relative viability,[14]; first compound 0.253 µM,0.987
same,relative viability,[14]; first compound 0.8 µM,1.19
same,relative viability,[14]; first compound 2.53 µM,1.26
same,relative viability,[15]; first compound 0.08 µM,0.453
same,relative viability,[15]; first compound 0.253 µM,0.445
same,relative viability,[15]; first compound 0.8 µM,0.445
same,relative viability,[15]; first compound 2.53 µM,0.46
same,relative viability,[16]; first compound 0.08 µM,0.844
same,relative viability,[16]; first compound 0.253 µM,0.701
same,relative viability,[16]; first compound 0.8 µM,0.847
same,relative viability,[16]; first compound 2.53 µM,0.788
same,relative viability,[17]; first compound 0.08 µM,0.982
same,relative viability,[17]; first compound 0.253 µM,0.894
same,relative viability,[17]; first compound 0.8 µM,0.919
same,relative viability,[17]; first compound 2.53 µM,0.869
same,relative viability,[18]; first compound 0.08 µM,0.157
same,relative viability,[18]; first compound 0.253 µM,0.191
same,relative viability,[18]; first compound 0.8 µM,0.214
same,relative viability,[18]; first compound 2.53 µM,0.223
same,relative viability,[19]; first compound 0.08 µM,1.01
same,relative viability,[19]; first compound 0.253 µM,0.95
same,relative viability,[19]; first compound 0.8 µM,0.841
same,relative viability,[19]; first compound 2.53 µM,0.93
same,relative viability,[20]; first compound 0.08 µM,0.885
same,relative viability,[20]; first compound 0.253 µM,0.809
same,relative viability,[20]; first compound 0.8 µM,0.853
same,relative viability,[20]; first compound 2.53 µM,0.927
same,relative viability,[21]; first compound 0.08 µM,0.962
same,relative viability,[21]; first compound 0.253 µM,0.944
same,relative viability,[21]; first compound 0.8 µM,1.06
same,relative viability,[21]; first compound 2.53 µM,1.01

# From the supplement of paper PMC10307832
